Experimental data taken from patent US6365759B1, “Intermediate compounds for preparing macrocylcic analogs” (Eisai Co., Ltd., priority 1998, dated 2002).
Read-outs that look alike come from different tables or passages of the source.

How the values were obtained:
[1] = system: U937 human histiocytic lymphoma cells; test: U937 Mitotic Block Reversibility Assay; assay type: cell-based; conditions: for reversibility of induced mitotic blocks: blocks sustained 10 hour after drug washout
[2] = system: DLD-1 human colon cancer cells; test: in vitro cell growth inhibition assay using DLD-1 cells; assay type: cell-based
[3] = in vitro cell growth inhibition, DLD-1 human colon cancer cells, read-out: DLD-1 mean IC50
[4] = Homo sapiens, DLD-1, read-out: DLD-1 mean IC50

## C=C1CC2CCC34CC5OC6C(OC7CCC(CC(=O)C[C@H]8C(CC9OC(CCC1O2)CC(C)C9=C)OC(CC(O)CO)C8OC)OC7C6O3)C5O4 (stereo partly drawn) [Compound B1793]
[1]
  Reversibility Ratio: 14.7
[1]; after washout, 12 h pretreatment, U937 cells
  Complete Mitotic Block 10 hour: 44 nM
[1]; before washout, 12 h pretreatment, U937 cells
  Complete Mitotic Block 0 hour: 3 nM
[2]; [3]
  IC50: 0.93 nM

## C=C1CC2CCC34CC5OC6C(OC7CCC(CC(=O)CC8C(CC9OC(CCC1O2)CC(C)C9=C)OC(CC(O)CO)C8OC)OC7C6O3)C5O4 (stereo not drawn) [Compound B1794]
[2]; [3]
  IC50: 12.2 nM

## C=C1CC2CCC34CC5OC6C(OC7CCC(CC(=O)CC8C(CC9OC(CCC1O2)CC(C)C9=C)OC(CC(O)CN=[N+]=[N-])C8OC)OC7C6O3)C5O4 (stereo not drawn) [Compound B1922]
[1]
  Complete Mitotic Block 0 hour: 3 nM
  Complete Mitotic Block 10 hour: 30 nM
  Reversibility Ratio: 10.0
[2]; [4]
  IC50: 0.53 nM

## C=C1CC2CCC34CC5OC6C(OC7CCC(CC(=O)CC8C(CC9OC(CCC1O2)CC(C)C9=C)OC(CC(O)CNC(=O)C(=O)c1ccccc1)C8OC)OC7C6O3)C5O4 (stereo not drawn) [Compound B1930]
[2]; read-out: DLD-1 mean IC50
  IC50: 0.87 nM

## C=C1CC2CCC34CC5OC6C(OC7CCC(CC(=O)CC8C(CC9OC(CCC1O2)CC(C)C9=C)OC(CC(=O)CO)C8OC)OC7C6O3)C5O4 (stereo not drawn) [Compound B1934]
[1]
  Complete Mitotic Block 0 hour: 3 nM
  Complete Mitotic Block 10 hour: 30 nM
  Reversibility Ratio: 10.0
[2]; [4]
  IC50: 1.05 nM

## C=C1CC2CCC34CC5OC6C(OC7CCC(CC(=O)CC8C(CC9OC(CCC1O2)CC(C)C9=C)OC(CC(O)CNC(=O)Cc1cccnc1)C8OC)OC7C6O3)C5O4 (stereo not drawn) [Compound B1940]
[2]; read-out: DLD-1 mean IC50
  IC50: 5.43 nM

## C=C1CC2CCC34CC5OC6C(OC7CCC(CC(=O)CC8C(CC9OC(CCC1O2)CC(C)C9=C)OC(CC(O)CNC(=O)Cc1ccccc1)C8OC)OC7C6O3)C5O4 (stereo not drawn) [Compound B1973]
[2]; read-out: DLD-1 mean IC50
  IC50: 1.15 nM

## C=C1CC2CCC34CC5OC6C(OC7CCC(CC(=O)CC8C(CC9OC(CCC1O2)CC(C)C9=C)OC(CC(O)COC(=O)Nc1ccccc1)C8OC)OC7C6O3)C5O4 (stereo not drawn) [Compound B1984]
[2]; read-out: DLD-1 mean IC50
  IC50: 1.01 nM

## C=C1CC2CCC34CC5OC6C(OC7CCC(CC(=O)CC8C(CC9OC(CCC1O2)CC(C)C9=C)OC(CC(O)CNC(=O)C(=O)c1c[nH]c2ccccc12)C8OC)OC7C6O3)C5O4 (stereo not drawn) [Compound B1987]
[2]; read-out: DLD-1 mean IC50
  IC50: 1.82 nM

## C=C1CC2CCC34CC5OC6C(OC7CCC(CC(=O)CC8C(CC9OC(CCC1O2)CC(C)C9=C)OC(CC(=O)CNC(=O)C(=O)c1ccccc1)C8OC)OC7C6O3)C5O4 (stereo not drawn) [Compound B1988]
[2]; [4]
  IC50: 2.67 nM

## C=C1CC2CCC34CC5OC6C(OC7CCC(CC(=O)CC8C(CC9OC(CCC1O2)CC(C)C9=C)OC(CC(O)COC(=O)Nc1ccc(Cl)cc1)C8OC)OC7C6O3)C5O4 (stereo not drawn) [Compound B1990]
[2]; read-out: DLD-1 mean IC50
  IC50: 1.3 nM

## C=C1CC2CCC34CC5OC6C(OC7CCC(CC(=O)CC8C(CC9OC(CCC1O2)CC(C)C9=C)OC(CC(O)CNC(=O)c1ccc(Cl)cc1)C8OC)OC7C6O3)C5O4 (stereo not drawn) [Compound B1991]
[2]; read-out: DLD-1 mean IC50
  IC50: 0.69 nM

## C=C1CC2CCC34CC5OC6C(OC7CCC(CC(=O)CC8C(CC9OC(CCC1O2)CC(C)C9=C)OC(CC(O)COC(=O)Nc1ccc(OC)cc1)C8OC)OC7C6O3)C5O4 (stereo not drawn) [Compound B1992]
[2]; read-out: DLD-1 mean IC50
  IC50: 0.86 nM

## C=C1CC2CCC34CC5OC6C(OC7CCC(CC(=O)CC8C(CC9OC(CCC1O2)CC(C)C9=C)OC(CC(O)CNC(=O)C(=O)c1cc(OC)c(OC)c(OC)c1)C8OC)OC7C6O3)C5O4 (stereo not drawn) [Compound B2003]
[2]; read-out: DLD-1 mean IC50
  IC50: 1.21 nM

## C=C1CC2CCC34CC5OC6C(OC7CCC(CC(=O)CC8C(CC9OC(CCC1O2)CC(C)C9=C)OC(CC(O)CNC(=O)c1cc(OC)c(OC)c(OC)c1)C8OC)OC7C6O3)C5O4 (stereo not drawn) [Compound B2004]
[2]; read-out: DLD-1 mean IC50
  IC50: 0.63 nM

## C=C1CC2CCC34CC5OC6C(OC7CCC(CC(=O)CC8C(CC9OC(CCC1O2)CC(C)C9=C)OC(CC(O)COCc1ccc(F)cc1)C8OC)OC7C6O3)C5O4 (stereo not drawn) [Compound B2014]
[2]; [4]
  IC50: 0.87 nM

## C=C1CC2CCC34CC5OC6C(OC7CCC(CC(=O)CC8C(CC9OC(CCC1O2)CC(C)C9=C)OC(CC(CO)OCc1ccc(F)cc1)C8OC)OC7C6O3)C5O4 (stereo not drawn) [Compound B2015]
[2]; [4]
  IC50: 2.78 nM

## C=CC(F)(F)C(O)CC1OC2CC3OC(CCC4OC(CCC56CC7OC8C(OC9CCC(CC(=O)CC2C1OC)OC9C8O5)C7O6)CC4=C)CC(C)C3=C (stereo not drawn) [Compound B2035]
[2]; [4]
  IC50: 0.76 nM

## C=C1C[C@@H]2CCC34CC5OC6C(OC7CCC(CC(=O)CC8C(CC9OC(CCC1O2)CC(C)C9=C)OC(CCO)C8OC)OC7C6O3)C5O4 (stereo partly drawn) [Compound B2037]
[2]; [4]
  IC50: 0.66 nM

## C=C1CC2CCC34CC5OC6C(OC7CCC(CC(=O)CC8C(CC9OC(CCC1O2)CC(C)C9=C)OC(CC(O)CC(O)CO)C8OC)OC7C6O3)C5O4 (stereo not drawn) [Compound B2086]
[2]; [4]
  IC50: 11.2 nM

## C=C1CC2CCC34CC5OC6C(OC7CCC(CC(=O)CC8C(CC9OC(CCC1O2)CC(C)C9=C)OC(C(O)CO)C8C)OC7C6O3)C5O4 (stereo not drawn) [Compound B2090]
[2]; [4]
  IC50: 0.52 nM

## C=C1CC2CCC34CC5OC6C(OC7CCC(CC(=O)CC8C(CC9OC(CCC1O2)CC(C)C9=C)OC(CC(O)CCO)C8OC)OC7C6O3)C5O4 (stereo not drawn) [Compound B2091]
[1]
  Complete Mitotic Block 0 hour: 3 nM
  Complete Mitotic Block 10 hour: 30 nM
  Reversibility Ratio: 10.0
[2]; [4]
  IC50: 1.36 nM

## C=C1CC2CCC34CC5OC6C(OC7CCC(CC(=O)CC8C(CC9OC(CCC1O2)CC(C)C9=C)OC(C(O)CN)C8C)OC7C6O3)C5O4 (stereo not drawn) [Compound B2136]
[1]
  Complete Mitotic Block 0 hour: 3 nM
  Complete Mitotic Block 10 hour: 3 nM
  Reversibility Ratio: 1.0
[2]; [4]
  IC50: 5.23 nM

## C=C1C[C@@H]2CCC34CC5OC6C(OC7CCC(CC(=O)CC8C(CC9OC(CCC1O2)CC(C)C9=C)OC(CC(O)COS(C)(=O)=O)C8OC)OC7C6O3)C5O4 (stereo partly drawn) [Compound B2294]
[2]; [4]
  IC50: 0.8 nM

## C=C1CC2CCC34CC5OC6C(OC7CCC(CC(=O)CC8C(CC9OC(CCC1O2)CC(C)C9=C)OC(CC(O)CN(C)C)C8OC)OC7C6O3)C5O4 (stereo not drawn) [Compound B2320]
[1]
  Complete Mitotic Block 0 hour: 1 nM
  Complete Mitotic Block 10 hour: 10 nM
  Reversibility Ratio: 10.0
[2]; read-out: DLD-1 mean IC50
  IC50: 1.2 nM

## C=C1CC2CCC34CC5OC6C(OC7CCC(CC(=O)CC8C(CC9OC(CCC1O2)CC(C)C9=C)OC(CC(O)CNC(C)C)C8OC)OC7C6O3)C5O4 (stereo not drawn) [Compound B2330]
[1]
  Complete Mitotic Block 0 hour: 7 nM
  Complete Mitotic Block 10 hour: 7 nM
  Reversibility Ratio: 1.0
[2]; read-out: DLD-1 mean IC50
  IC50: 4.4 nM

## C=C1C[C@@H]2CC[C@@]34C[C@H]5O[C@H]6[C@@H](O3)[C@H]3O[C@H](CC[C@@H]3O[C@@H]6[C@H]5O4)CC(=O)C[C@@H]3[C@@H](OC)[C@@H](C[C@H](O)CNC)O[C@H]3C[C@H]3O[C@@H](CC[C@@H]1O2)C[C@@H](C)C3=C [Compound B2336]
[1]
  Complete Mitotic Block 0 hour: 10 nM
  Complete Mitotic Block 10 hour: 10 nM
  Reversibility Ratio: 1.0
[2]; read-out: DLD-1 mean IC50
  IC50: 3.33 nM

## CC[C@]1(O)C[C@@H]2CN(CCc3c([nH]c4ccccc34)[C@@](C(=O)OC)(c3cc4c(cc3OC)N(C)[C@H]3[C@@](O)(C(=O)OC)[C@H](OC(C)=O)[C@]5(CC)C=CCN6CC[C@]43[C@@H]65)C2)C1 [Vinblastine, reference compound]
[1]; Table 2
  Reversibility ratio: 60
[1]; Table 2, U937 cells
  Drug concentration required for complete mitotic block, 0 hour (before washout): 10 nM
  Drug concentration required for complete mitotic block, 10 hour (after washout): 600 nM
[1]
  reversibility of induced mitotic blocks: highly reversible

## CC[C@]1(O)C[C@H]2CN(CCc3c([nH]c4ccccc34)[C@@](C(=O)OC)(c3cc4c(cc3OC)N(C=O)[C@H]3[C@@](O)(C(=O)OC)[C@H](OC(C)=O)[C@]5(CC)C=CCN6CC[C@]43[C@@H]65)C2)C1 [Vincristine, reference compound]
[1]; Table 2
  Reversibility ratio: 1
[1]; Table 2, U937 cells
  Drug concentration required for complete mitotic block, 0 hour (before washout): 10 nM
  Drug concentration required for complete mitotic block, 10 hour (after washout): 10 nM
[1]; Table 2, reversibility of mitotic block
  Interpretation: Irreversible
[1]
  reversibility of induced mitotic blocks: irreversible
